Data taken from ChEMBL document CHEMBL5113482, “Discovery of fused benzimidazole-imidazole autophagic flux inhibitors for treatment of triple-negative breast cancer” (Eur J Med Chem, 2022).
The source made the active and inactive calls. The calls are words filed in the database; no cut-off is given here.

Key:
MDA-MB-231 [1] = assay: Induction of mitochondrial membrane potential loss in human MDA-MB-231 cells at 20 uM measured after 48 hrs by JC-1 staining based assay relative to control; type: functional
ASPC1 = assay: Antiproliferative activity against human ASPC cells assessed as cell growth inhibition measured after 48 hrs by MTT assay; type: functional, cell-based; details: ASPC1, 48 h
U-87 MG = assay: Antiproliferative activity against human U87 cells assessed as cell growth inhibition measured after 48 hrs by MTT assay; type: functional, cell-based, U-87MG ATCC
MDA-MB-231 [2] = assay: Antiproliferative activity against human MDA-MB-231 cells assessed as reduction in Ki67 expression measured after 48 hrs by immunofluorescence analysis; type: functional, cell-based
MDA-MB-468 [3] = assay: Antiproliferative activity against human MDA-MB-468 cells assessed as reduction in Ki67 expression measured after 48 hrs by immunofluorescence analysis; type: functional, cell-based
MDA-MB-231 [4] = assay: Inhibition of autophagy in human MDA-MB-231 cells assessed as increase in LC3B-II expression measured after 48 hrs by immunofluorescence analysis; type: functional, cell-based; details: dose 5-20 µM
[5] = target: Serine-protein kinase ATM (Homo sapiens) (UniProt Q13315); assay: Activation of ATM phosphorylation in human MDA-MB-231 cells at 5 to 20 uM measured after 6 to 48 hrs by Western blot analysis; type: cell-based; details: filed as activator, dose 5-20 µM, time 6-48 hrs
[6] = target: T1, Structural maintenance of chromosomes protein 1A (Homo sapiens) (UniProt Q14683); assay: Activation of SMC1 phosphorylation in human MDA-MB-231 cells at 5 to 20 uM measured after 6 to 48 hrs by Western blot analysis; type: cell-based; details: filed as activator, dose 5-20 µM, time 6-48 hrs
T1 sequence (whole entry): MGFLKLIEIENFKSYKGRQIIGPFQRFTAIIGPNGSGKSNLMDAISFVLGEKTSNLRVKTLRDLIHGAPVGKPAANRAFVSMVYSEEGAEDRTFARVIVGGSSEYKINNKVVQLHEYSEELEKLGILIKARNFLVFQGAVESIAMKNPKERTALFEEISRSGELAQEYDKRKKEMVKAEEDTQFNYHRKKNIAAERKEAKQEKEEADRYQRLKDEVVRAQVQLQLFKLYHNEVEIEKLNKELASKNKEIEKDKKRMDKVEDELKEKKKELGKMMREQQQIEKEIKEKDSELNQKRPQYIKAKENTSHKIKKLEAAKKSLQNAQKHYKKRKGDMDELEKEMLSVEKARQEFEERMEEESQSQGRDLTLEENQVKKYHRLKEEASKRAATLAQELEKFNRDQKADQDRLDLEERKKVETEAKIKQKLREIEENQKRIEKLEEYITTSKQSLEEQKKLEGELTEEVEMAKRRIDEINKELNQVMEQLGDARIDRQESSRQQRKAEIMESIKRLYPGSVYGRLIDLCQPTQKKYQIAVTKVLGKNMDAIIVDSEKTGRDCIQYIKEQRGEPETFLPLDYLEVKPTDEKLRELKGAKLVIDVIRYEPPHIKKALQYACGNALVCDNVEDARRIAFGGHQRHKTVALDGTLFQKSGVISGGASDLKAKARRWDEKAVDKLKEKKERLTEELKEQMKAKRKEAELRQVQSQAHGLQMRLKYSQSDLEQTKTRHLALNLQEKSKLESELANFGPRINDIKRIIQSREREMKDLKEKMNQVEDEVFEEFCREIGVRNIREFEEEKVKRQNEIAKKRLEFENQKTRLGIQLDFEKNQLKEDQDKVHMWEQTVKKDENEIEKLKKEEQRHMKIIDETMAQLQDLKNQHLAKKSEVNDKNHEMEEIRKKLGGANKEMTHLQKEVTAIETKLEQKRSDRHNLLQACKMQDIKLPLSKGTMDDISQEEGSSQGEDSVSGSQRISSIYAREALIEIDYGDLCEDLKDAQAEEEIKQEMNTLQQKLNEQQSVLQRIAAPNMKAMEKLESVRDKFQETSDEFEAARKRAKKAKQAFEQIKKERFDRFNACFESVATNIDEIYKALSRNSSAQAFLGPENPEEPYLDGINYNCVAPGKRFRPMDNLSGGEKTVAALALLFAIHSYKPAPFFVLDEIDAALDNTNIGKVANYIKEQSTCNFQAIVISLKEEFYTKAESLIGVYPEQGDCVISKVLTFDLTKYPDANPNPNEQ

MDA-MB-231 [7] = assay: Induction of DNA damage in human MDA-MB-231 cells assessed as reduction in BRCA2 expression measured after 6 to 48 hrs by Western blot analysis; type: functional, cell-based; details: dose 5-20 µM, time 6-48 hrs, DDE = dose-dependent effect
MDA-MB-468 [8] = assay: Induction of DNA damage in human MDA-MB-468 cells assessed as reduction in RAD51 expression measured after 6 to 48 hrs by Western blot analysis; type: functional, cell-based; details: dose 5-20 µM, time 6-48 hrs, DDE = dose-dependent effect
MDA-MB-468 [9] = assay: Inhibition of autophagic flux in human MDA-MB-468 cells assessed as reduction in polyubiquitinated H2A expression measured after 48 hrs by Western blot analysis; type: functional, cell-based
MDA-MB-231 [10] = assay: Cell cycle arrest in human MDA-MB-231 cells assessed as increase in accumulation at S-phase at 5 to 20 uM measured after 48 hrs by propidium iodide staining based flow cytometry; type: functional; details: dose 5-20 µM
MDA-MB-468 [11] = assay: Cell cycle arrest in human MDA-MB-468 cells assessed as increase in accumulation at S-phase at 5 to 20 uM measured after 48 hrs by propidium iodide staining based flow cytometry; type: functional; details: dose 5-20 µM
MDA-MB-231 [12] = assay: Cell cycle arrest in human MDA-MB-231 cells assessed as reduction in CDK1 expression measured after 48 hrs by Western blot analysis; type: functional, cell-based; details: dose 5-20 µM, DDE = dose-dependent effect
MDA-MB-231 [13] = assay: Cell cycle arrest in human MDA-MB-231 cells assessed as increase in CHK2 phosphorylation at Thr 68 residue measured after 48 hrs by Western blot analysis; type: functional, cell-based; details: dose 5-20 µM, DDE = dose-dependent effect
MDA-MB-468 [14] = assay: Induction of apoptosis in human MDA-MB-468 cells assessed as increase in late apoptotic cells measured after 48 hrs by Annexin V-FITC/propidium iodide staining based flow cytometry; type: functional, cell-based; details: dose 5-20 µM, DDE = dose-dependent effect
MDA-MB-231 [15] = assay: Induction of apoptosis in human MDA-MB-231 cells assessed as reduction in Bcl-2 expression measured after 48 hrs by Western blot analysis; type: functional, cell-based; details: dose 5-20 µM, DDE = dose-dependent effect
MDA-MB-231 [16] = assay: Induction of apoptosis in human MDA-MB-231 cells assessed as increase in cleaved caspase-9 expression measured after 48 hrs by Western blot analysis; type: functional, cell-based; details: dose 5-20 µM, DDE = dose-dependent effect
MDA-MB-231 [17] = assay: Induction of apoptosis in human MDA-MB-231 cells assessed as increase in cleaved PARP expression measured after 48 hrs by Western blot analysis; type: functional, cell-based; details: dose 5-20 µM, DDE = dose-dependent effect
MDA-MB-468 [18] = assay: Induction of apoptosis in human MDA-MB-468 cells assessed as increase in Bak expression measured after 48 hrs by Western blot analysis; type: functional, cell-based; details: dose 5-20 µM, DDE = dose-dependent effect
MDA-MB-468 [19] = assay: Induction of apoptosis in human MDA-MB-468 cells assessed as increase in cleaved caspase-9 expression measured after 48 hrs by Western blot analysis; type: functional, cell-based; details: dose 5-20 µM, DDE = dose-dependent effect
MDA-MB-231 [20] = assay: Antitumor activity against human MDA-MB-231 cells xenografted in ip dosed NOD/SCID mouse assessed as upregulation of p62 expression administered at 3 days interval for 24 days and measured on day 25 by Western blot analysis; type: functional, organism-based; details: dose 5-15 mg/kg, time 25.0 day, DDE = dose-dependent effect
MDA-MB-231 [21] = assay: Antitumor activity against human MDA-MB-231 cells xenografted in ip dosed NOD/SCID mouse assessed as upregulation of PARP expression administered at 3 days interval for 24 days and measured on day 25 by Western blot analysis; type: functional, organism-based; details: dose 5-15 mg/kg, time 25.0 day, DDE = dose-dependent effect

Sequence of Serine-protein kinase ATM (Homo sapiens) (Q13315 whole entry): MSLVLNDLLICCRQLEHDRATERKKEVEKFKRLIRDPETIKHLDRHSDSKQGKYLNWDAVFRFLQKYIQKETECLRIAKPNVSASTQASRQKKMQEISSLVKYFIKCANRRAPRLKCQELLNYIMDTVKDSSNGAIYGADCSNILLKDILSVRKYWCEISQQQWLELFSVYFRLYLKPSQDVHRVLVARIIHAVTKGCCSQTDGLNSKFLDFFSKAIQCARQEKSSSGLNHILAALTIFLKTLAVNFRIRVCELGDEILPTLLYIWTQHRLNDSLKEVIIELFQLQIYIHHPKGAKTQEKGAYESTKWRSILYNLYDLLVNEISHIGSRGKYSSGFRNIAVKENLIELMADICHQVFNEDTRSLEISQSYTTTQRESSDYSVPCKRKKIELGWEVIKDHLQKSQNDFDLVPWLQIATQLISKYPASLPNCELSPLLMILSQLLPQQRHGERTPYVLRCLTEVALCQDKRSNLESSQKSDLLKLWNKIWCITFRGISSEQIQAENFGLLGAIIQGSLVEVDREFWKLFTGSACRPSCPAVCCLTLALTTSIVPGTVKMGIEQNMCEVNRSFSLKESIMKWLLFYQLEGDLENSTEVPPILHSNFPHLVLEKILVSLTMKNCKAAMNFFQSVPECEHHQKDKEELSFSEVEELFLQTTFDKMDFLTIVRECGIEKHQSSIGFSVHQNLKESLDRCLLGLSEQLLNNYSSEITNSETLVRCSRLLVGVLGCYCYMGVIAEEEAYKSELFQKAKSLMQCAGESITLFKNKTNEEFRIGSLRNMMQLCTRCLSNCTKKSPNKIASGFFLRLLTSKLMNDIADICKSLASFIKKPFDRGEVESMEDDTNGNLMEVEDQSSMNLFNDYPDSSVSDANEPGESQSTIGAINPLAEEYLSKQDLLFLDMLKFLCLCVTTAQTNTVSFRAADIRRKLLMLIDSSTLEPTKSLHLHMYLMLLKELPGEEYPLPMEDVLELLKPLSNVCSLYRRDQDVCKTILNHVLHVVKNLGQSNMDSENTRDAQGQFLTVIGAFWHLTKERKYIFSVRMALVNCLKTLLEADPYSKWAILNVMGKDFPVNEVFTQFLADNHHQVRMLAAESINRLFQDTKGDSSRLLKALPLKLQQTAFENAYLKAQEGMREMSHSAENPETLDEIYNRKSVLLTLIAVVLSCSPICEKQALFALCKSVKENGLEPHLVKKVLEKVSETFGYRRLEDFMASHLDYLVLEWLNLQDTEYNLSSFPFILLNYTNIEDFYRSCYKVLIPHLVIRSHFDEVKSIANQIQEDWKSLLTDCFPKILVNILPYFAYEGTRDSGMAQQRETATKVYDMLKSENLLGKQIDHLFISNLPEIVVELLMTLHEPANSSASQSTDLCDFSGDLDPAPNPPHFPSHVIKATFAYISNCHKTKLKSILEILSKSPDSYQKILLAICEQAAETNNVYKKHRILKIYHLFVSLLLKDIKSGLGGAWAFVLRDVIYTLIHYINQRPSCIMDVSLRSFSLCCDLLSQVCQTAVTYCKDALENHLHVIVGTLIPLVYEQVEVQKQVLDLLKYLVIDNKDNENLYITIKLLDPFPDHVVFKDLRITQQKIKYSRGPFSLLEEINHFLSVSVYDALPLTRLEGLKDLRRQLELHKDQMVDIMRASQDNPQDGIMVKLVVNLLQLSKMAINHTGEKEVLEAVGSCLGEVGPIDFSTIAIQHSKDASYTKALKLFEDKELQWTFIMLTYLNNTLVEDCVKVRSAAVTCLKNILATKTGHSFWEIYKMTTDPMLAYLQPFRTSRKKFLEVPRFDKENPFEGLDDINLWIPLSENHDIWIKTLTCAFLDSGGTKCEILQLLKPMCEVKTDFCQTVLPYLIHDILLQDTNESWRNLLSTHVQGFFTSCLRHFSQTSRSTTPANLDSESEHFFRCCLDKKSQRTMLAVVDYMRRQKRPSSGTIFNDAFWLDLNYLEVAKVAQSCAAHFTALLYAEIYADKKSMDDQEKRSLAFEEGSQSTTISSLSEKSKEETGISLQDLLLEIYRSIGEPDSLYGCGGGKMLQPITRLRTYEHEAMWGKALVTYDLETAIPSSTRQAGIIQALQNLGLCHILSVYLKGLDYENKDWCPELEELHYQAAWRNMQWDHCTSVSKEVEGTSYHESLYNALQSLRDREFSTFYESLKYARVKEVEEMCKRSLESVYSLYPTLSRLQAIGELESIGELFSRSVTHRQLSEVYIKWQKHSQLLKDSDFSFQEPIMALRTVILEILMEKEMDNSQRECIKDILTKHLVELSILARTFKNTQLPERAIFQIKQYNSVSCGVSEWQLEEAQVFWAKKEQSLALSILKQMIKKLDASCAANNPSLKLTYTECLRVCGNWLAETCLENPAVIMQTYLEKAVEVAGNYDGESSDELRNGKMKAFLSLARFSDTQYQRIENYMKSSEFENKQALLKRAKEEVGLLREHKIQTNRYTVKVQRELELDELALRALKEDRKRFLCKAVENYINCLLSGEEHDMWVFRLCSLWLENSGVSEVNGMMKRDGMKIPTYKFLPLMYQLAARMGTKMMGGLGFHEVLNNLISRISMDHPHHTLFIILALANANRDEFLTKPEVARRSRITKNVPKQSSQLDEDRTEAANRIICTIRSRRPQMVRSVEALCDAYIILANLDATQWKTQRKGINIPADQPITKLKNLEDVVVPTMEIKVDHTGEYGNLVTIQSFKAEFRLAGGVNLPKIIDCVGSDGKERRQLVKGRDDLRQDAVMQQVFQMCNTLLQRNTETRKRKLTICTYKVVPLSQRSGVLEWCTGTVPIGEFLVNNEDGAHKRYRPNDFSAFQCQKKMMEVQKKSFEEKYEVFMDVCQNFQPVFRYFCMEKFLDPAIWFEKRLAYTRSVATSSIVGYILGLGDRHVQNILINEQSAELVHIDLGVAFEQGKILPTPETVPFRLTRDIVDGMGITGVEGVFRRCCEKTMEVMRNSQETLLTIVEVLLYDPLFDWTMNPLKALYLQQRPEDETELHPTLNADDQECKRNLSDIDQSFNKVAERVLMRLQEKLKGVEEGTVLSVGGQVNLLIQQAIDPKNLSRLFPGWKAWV

O=C(NC1CCCCC1)c1[nH]cnc1-c1nc2ccccc2[nH]1
Activity (MDA-MB-231 [1]): 50%
IC50 (ASPC1): 26.9 µM
IC50 (U-87 MG): 15.4 µM
Activity (MDA-MB-231 [2]): Active
Activity (MDA-MB-468 [3]): Active
inhibition (MDA-MB-231 [4]): Active
Activity [5]: Active
Activity [6]: Active
Activity (MDA-MB-231 [7]): Dde
Activity (MDA-MB-468 [8]): Dde
inhibition (MDA-MB-468 [9]): Active
Activity (MDA-MB-231 [10]): Active
Activity (MDA-MB-468 [11]): Active
Activity (MDA-MB-231 [12]): Dde
Activity (MDA-MB-231 [13]): Dde
Activity (MDA-MB-468 [14]): Dde
Activity (MDA-MB-231 [15]): Dde
Activity (MDA-MB-231 [16]): Dde
Activity (MDA-MB-231 [17]): Dde
Activity (MDA-MB-468 [18]): Dde
Activity (MDA-MB-468 [19]): Dde
Activity (MDA-MB-231 [20]): Dde
Activity (MDA-MB-231 [21]): Dde
